Results reported in patent publication US20230013419A1, “ANALOGUES OF 3-(5-METHYL-1,3-THIAZOL-2-YL)-N-{(1R)-1-[2-(TRIFLUORO-METHYL)PYRIMIDIN-5-YL]ETHYL}BENZAMIDE” (Bayer Aktiengesellschaft, priority 2019, published 2023).
≈ marks a conversion by molar mass, not a printed value. Where “and” joins values, the source holds several entries; their conditions need not be identical. Identical values can stand only once.

Experiments:
[1] = biological target: T1, human P2X3 receptor (Homo sapiens, UniProt P56373); assay: Cellular in vitro assay for determination of P2X3 receptor activity (CHO cells, photina luminescence, agonist alpha-beta-methylene-ATP); type: cell-based; details: antagonist activity at human P2X3 receptors, recombinant CHO cells, alpha-beta-methylene-ATP at EC50; read-out: Target IC50
T1 construct: expressed in transfected cells; host or cells: CHO (Chinese hamster ovary) cells, stably co-transfected with mitochondrial photina
T1 sequence (P56373 1-397): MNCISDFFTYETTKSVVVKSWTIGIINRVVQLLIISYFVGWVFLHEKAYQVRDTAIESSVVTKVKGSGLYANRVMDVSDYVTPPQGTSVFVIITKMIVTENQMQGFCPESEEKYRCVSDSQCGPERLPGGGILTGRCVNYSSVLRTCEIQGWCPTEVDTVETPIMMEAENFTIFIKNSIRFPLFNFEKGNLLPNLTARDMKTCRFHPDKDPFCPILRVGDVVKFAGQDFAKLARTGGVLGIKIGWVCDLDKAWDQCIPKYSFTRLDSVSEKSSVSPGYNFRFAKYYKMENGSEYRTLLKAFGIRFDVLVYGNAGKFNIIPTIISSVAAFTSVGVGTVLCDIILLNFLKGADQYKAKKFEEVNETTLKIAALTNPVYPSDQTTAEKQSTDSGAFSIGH
Method: Cellular In Vitro Assay for Determination of P2X3 Receptor Activity
The determination of antagonistic activity at the P2X3 receptor of the compounds of the invention was performed by use of a recombinant cell line. These cell line derives originally from the Chinese hamster ovary (CHO) cell line (Tjio J. H.; Puck T. T., 1958, J. Exp. Med. 108: 259-271). The cell line is stably transfected with the human P2X3 receptor and a calcium-sensitive photoprotein, mitochondrial photina, which, after reconstitution with the cofactor coelenterazine, emits light in dependence of calcium binding [Bovolenta S, Foti M, Lohmer S, Corazza S., J Biomol Screen. 2007 August; 12(5):694-704]. The strength of the photina luminescence signal corresponds to the level of receptor activation upon agonist binding. An inhibitor would decrease the signal depending on its potency and concentration. Bioluminescence was detected using a suitable luminometer [Milligan G, Marshall F, Rees S, Trends in Pharmacological Sciences 17, 235-237 (1996)].
On the day before the assay, the cells are plated out in culture medium (DMEM/F12 (PAN, P04-41451), 10% FCS) in 384-well microtiter plates and kept in a cell incubator (96% humidity, 5% v/v CO2, […]). On the day of the assay medium is replaced by 2 mM Ca-tyrode buffer (20 mM HEPES, 130 mM NaCl, 5 mM KCl, 5 mM NaHCO3, 2 mM MgCl2, pH 7.4) containing 5 μg/ml coelenterazine. Plates are incubated for 3 hours at 37° C. (96% humidity, 5% v/v CO2). After incubation the test substances in various concentrations are placed for 10 minutes in the wells of the microtiter plate before the agonist alpha-beta-methylene-ATP at EC50 concentration is added. The resulting light signal is measured immediately in the luminometer.
The examples were tested in quadruples per plate and mean values were used to determine IC50 values at the human P2X3 receptors and percentage of maximal inhibition.

[2] = High throughput aqueous solubility in phosphate buffer pH 6.5; type: physicochemical; details: for solubility at 24 h: aqueous buffer, kinetic from dmso stock, phosphate buffer pH 6.5, 1% DMSO, 24 hrs at room temperature; for solubility compared to example 11 of WO2016/091776 A1: aqueous, pH 6.5
Method: Examples were tested for its solubility in aqueous media (pH 6.5). Examples were synthesized one or more times in accordance with the above-described protocols. When synthesized more than once, data from solubility assays represent average values or median values calculated utilizing data sets obtained from testing of one or more synthetic batch.
The high throughput screening method to determine aqueous drug solubility is based on Thomas Onofrey and Greg Kazan, Performance and correlation of a 96-well high throughput screening method to determine aqueous drug solubility, Millipore Corporation Application Note, 2003; Lit. No. AN1731EN00.
The assay was run in a 96-well plate format. Each well was filled with an individual compound.
All pipetting steps were performed using a robot platform.
100 μl of a 10 mmolar solution of drug in DMSO were concentrated by vacuum centrifugation and resolved in 10 μl DMSO. 990 μl phosphate buffer pH 6.5 were added. The content of DMSO amounts to 1%. The multititer plate was put on a shaker and mixed for 24 hrs at room temperature. 150 μl of the suspension were transferred to a filtration plate. […] A second microtiter plate with 20 μl of a 10 mM solution of drug in DMSO served for calibration. Two concentrations ([…]) were prepared by dilution in DMSO/water 1:1 and used for calibration. Filtrate and calibration plates were quantified by HPLC-MS/MS.
Chromatographic conditions were as follows:
HPLC column: Ascentis Express C18 4.6×30 mm 2.7 μm
Mobile phase: A: Water/0.05% HCOOH • B: Acetonitrile/0.05% HCOOH • 0 min→95% A 5% B • 0.75 min→5% A 95% B • 2.75 min→5% A 95% B • 2.76 min→95% A 5% B • 3 min→95% A 5% B
The areas of sample- and calibration injections were determined by using mass spectrometry software (AB SCIEX: Discovery Quant 2.1.3. and Analyst 1.6.1). The solubility value was obtained by interpolation from the calibration curve.

[3] = In vitro metabolic stability in human liver microsomes; type: in vitro ADME; details: for CLblood: hepatic in vivo blood clearance calculated from half-life in human liver microsomes, 1 μM, well-stirred model; for metabolic stability compared to example 11 of WO2016/091776 A1: human liver microsomes; for Fmax: maximal oral bioavailability calculated from human liver microsome clearance
Method: Examples were tested for its metabolic stability in human liver microsomes. Examples were measured one or more times. When measured more than once, data from metabolic stability assays represent average values or median values calculated utilizing data sets obtained from testing of one or more synthetic batch.
In vitro metabolic stability was determined by incubating a solution of test compounds in dimethylsulfoxide (DMSO) and acetonitrile at 1 μM in a suspension of liver microsomes in 100 mM phosphate buffer, pH7.4 (NaH2PO4×H2O+Na2HPO4×2H2O) and at a protein concentration of 0.5 mg/mL at 37° C. The microsomes were activated by adding a co-factor mix containing 8 mM Glucose-6-Phosphat, 4 mM MgCl2; 0.5 mM NADP and 1 IU/ml G-6-P-Dehydrogenase in phosphate buffer, pH 7.4. The metabolic assay was started shortly afterwards by adding the test compound to the incubation at a final volume of 1 mL. Organic solvent was limited to ≤0.01% dimethylsulfoxide (DMSO) and ≤1% acetonitril. During incubation, the microsomal suspensions were continuously shaken at 580 rpm and aliquots were taken at 2, 8, 16, 30, 45 and 60 min, to which equal volumes of cold methanol were immediately added. Samples were frozen at −20° C. over night, subsequently centrifuged for 15 minutes at 3000 rpm and the supernatant was analyzed with an Agilent 1200 HPLC-system with LCMS/MS detection.
The half-life of a test compound was determined from the concentration-time plot. From the half-life the intrinsic clearances were calculated. Together with the additional parameters liver blood flow, specific liver weight and microsomal protein content the hepatic in vivo blood clearance (CL) and the maximal oral bioavailability (Fmax) were calculated for the different species. The hepatic in vivo blood clearance (CLblood) and the maximal oral bioavailability (Fmax) was calculated using the following formulae: CL′intrinsic [ml/(min*kg)]=kel [1/min]/((mg protein/volume of incubation [ml])*fu,inc)*(mg protein/liver weight [g])*(specific liver weight [g liver/kg body weight]); CLblood well-stirred [L/(h*kg)]=(QH [L/(h*kg)]*fu,blood*CL′intrinsic [L/(h*kg)])/(QH [L/(h*kg)]+fu,blood*CL′intrinsic [L/(h*kg)]); Fmax=1−CLblood/QH and using the following parameter values: QH (Liver blood flow): 1.32 L/h/kg (human), 2.1 L/h/kg (dog), 4.2 L/h/kg (rat); specific liver weight: 21 g/kg (human), 39 g/kg (dog), 32 g/kg (rat); microsomal protein content: 40 mg/g. fu,inc and fu,blood is taken as 1 with fu,inc being the unbound fraction (ie the non-protein bound fraction) in the incubation experiment, and fu,blood being the unbound fraction in blood.

With `Cc1cnc(-c2cc(O[C@@H](CO)CCO)cc(C(=O)N[C@H](C)c3cnc(C(F)(F)F)nc3)c2)s1` [Example 2, 3-{[(2R)-1,4-dihydroxybutan-2-yl]oxy}-5-(5-methyl-1,3-thiazol-2-yl)-N-{(1R)-1-[2-(trifluoromethyl)pyrimidin-5-yl]ethyl}benzamide] the IC50 [1] was 5.1 nM, the solubility at 24 h [2] was 96.5 µg/mL (≈ 194 µM) and the “solubility compared to example 11 of WO2016/091776 A1” value [2] was “significantly improved solubility”. For the same molecule, the CLblood [3] was 0.017 mL/min/kg, the “metabolic stability compared to example 11 of WO2016/091776 A1” value [3] was “significantly improved metabolic stability” and the Fmax [3] was 100%.
In the case of `Cc1cnc(-c2cc(O[C@@H]3CCOC3)cc(C(=O)N[C@H](C)c3cnc(C(F)(F)F)nc3)c2)s1` [example 11 of WO2016/091776 A1, 3-(5-Methyl-1,3-thiazol-2-yl)-5-[(3R)-tetrahydrofuran-3-yloxy]-N-{(1R)-1-[2-(trifluoro-methyl)pyrimidin-5-yl]ethyl}benzamide, reference compound], the solubility at 24 h [2] is reported as 2.9 µg/mL (≈ 6.06 µM), the CLblood [3] is reported as 8.67 mL/min/kg and 4.5 mL/min/kg and the Fmax [3] is reported as 61% and 79%.
For “{[(3R,5R)-5-Hydroxytetrahydrofuran-3-yl]oxy}-5-(5-methyl-1,3-thiazol-2-yl)-N-{(1R)-1-[2-(trifluoromethyl)pyrimidin-5-yl]ethyl}benzamide and {[(3R,5S)-5-hydroxytetrahydrofuran-3-yl]oxy}-5-(5-methyl-1,3-thiazol-2-yl)-N-{(1R)-1-[2-(trifluoromethyl)pyrimidin-5-yl]ethyl}benzamide [Example 1]”, the IC50 [1] was 20 nM, the CLblood [3] was 14.5 mL/min/kg and the Fmax [3] was 34%.
With `Cc1cnc(-c2cc(O[C@@H](CO)CC(=O)O)cc(C(=O)N[C@H](C)c3cnc(C(F)(F)F)nc3)c2)s1` [Example 3, (3R)-4-hydroxy-3-[3-(5-methyl-1,3-thiazol-2-yl)-5-({(1R)-1-[2-(trifluoromethyl)-pyrimidin-5-yl]ethyl}carbamoyl)phenoxy]butanoic acid] the IC50 [1] was 12 nM, the solubility at 24 h [2] was 1190 µg/mL (≈ 2330 µM) and the “solubility compared to example 11 of WO2016/091776 A1” value [2] was “significantly improved solubility”. For the same molecule, the CLblood [3] was 0.017 mL/min/kg, the “metabolic stability compared to example 11 of WO2016/091776 A1” value [3] was “significantly improved metabolic stability” and the Fmax [3] was 100%.
